Results: ChEMBL document CHEMBL4145553, “Design, synthesis, and biological evaluation of novel amide and hydrazide based thioether analogs targeting Histone deacteylase (HDAC) enzymes” (Eur J Med Chem, 2018)
Calls of active or inactive are those of the source. The calls are words filed in the database; no cut-off is given here.

Columns and labels:
HOP-62 = test: Growth inhibition of human HOP62 cells assessed as cell growth at 10^-8 M incubated for 48 hrs by sulforhodamine B assay relative to control; format: functional; conditions: HOP-62, 48 h, read-out: Activity
NCI-H322M = test: Growth inhibition of human NCI-H322M cells assessed as cell growth at 10^-8 M incubated for 48 hrs by sulforhodamine B assay relative to control; format: functional; conditions: read-out: Activity
Malme-3M = test: Growth inhibition of human MALME-3M cells assessed as cell growth at 10^-8 M incubated for 48 hrs by sulforhodamine B assay relative to control; format: functional; conditions: read-out: Activity
MDA-MB-435 [1] = test: Growth inhibition of human MDA-MB-435 cells assessed as cell growth at 10^-8 M incubated for 48 hrs by sulforhodamine B assay relative to control; format: functional; conditions: MDA-MB-435, 48 h, read-out: Activity
UACC-257 = test: Growth inhibition of human UACC257 cells assessed as cell growth at 10^-8 M incubated for 48 hrs by sulforhodamine B assay relative to control; format: functional; conditions: UACC-257, 48 h, read-out: Activity
OVCAR-4 = test: Growth inhibition of human OVCAR4 cells assessed as cell growth at 10^-8 M incubated for 48 hrs by sulforhodamine B assay relative to control; format: functional; conditions: OVCAR-4, 48 h, read-out: Activity
A498 [2] = test: Growth inhibition of human A498 cells assessed as cell growth at 10^-8 M incubated for 48 hrs by sulforhodamine B assay relative to control; format: functional; conditions: A498, 48 h, read-out: Activity
BT-549 [3] = test: Growth inhibition of human BT549 cells assessed as cell growth at 10^-8 M incubated for 48 hrs by sulforhodamine B assay relative to control; format: functional; conditions: BT-549, 48 h, read-out: Activity
MDA-MB-468 = test: Growth inhibition of human MDA-MB-468 cells assessed as cell growth at 10^-8 M incubated for 48 hrs by sulforhodamine B assay relative to control; format: functional; conditions: MDA-MB-468, 48 h, read-out: Activity
SW-620 = test: Growth inhibition of human SW620 cells assessed as cell growth at 10^-7 M incubated for 48 hrs by sulforhodamine B assay relative to control; format: functional; conditions: SW-620, 48 h, read-out: Activity
M14 = test: Growth inhibition of human M14 cells assessed as cell growth at 10^-7 M incubated for 48 hrs by sulforhodamine B assay relative to control; format: functional; conditions: M14, 48 h, read-out: Activity
SK-MEL-5 = test: Growth inhibition of human SK-MEL-5 cells assessed as cell growth at 10^-7 M incubated for 48 hrs by sulforhodamine B assay relative to control; format: functional; conditions: SK-MEL-5, 48 h, read-out: Activity
TK-10 = test: Growth inhibition of human TK10 cells assessed as cell growth at 10^-7 M incubated for 48 hrs by sulforhodamine B assay relative to control; format: functional; conditions: TK-10, 48 h, read-out: Activity
SNB-75 = test: Growth inhibition of human SNB75 cells assessed as cell growth at 10^-6 M incubated for 48 hrs by sulforhodamine B assay relative to control; format: functional; conditions: SNB-75, 48 h, read-out: Activity
A498 [4] = test: Growth inhibition of human A498 cells assessed as cell growth at 10^-6 M incubated for 48 hrs by sulforhodamine B assay relative to control; format: functional; conditions: A498, 48 h, read-out: Activity
HCT-15 = test: Growth inhibition of human HCT15 cells assessed as cell growth at 10^-5 M incubated for 48 hrs by sulforhodamine B assay relative to control; format: functional; conditions: HCT-15, 48 h, read-out: Activity
HT-29 = test: Growth inhibition of human HT-29 cells assessed as cell growth at 10^-5 M incubated for 48 hrs by sulforhodamine B assay relative to control; format: functional; conditions: HT-29, 48 h, read-out: Activity
SF-268 = test: Growth inhibition of human SF268 cells assessed as cell growth at 10^-5 M incubated for 48 hrs by sulforhodamine B assay relative to control; format: functional; conditions: SF-268, 48 h, read-out: Activity
SK-MEL-28 = test: Growth inhibition of human SK-MEL-28 cells assessed as cell growth at 10^-5 M incubated for 48 hrs by sulforhodamine B assay relative to control; format: functional; conditions: SK-MEL-28, 48 h, read-out: Activity
SN12C = test: Growth inhibition of human SN12C cells assessed as cell growth at 10^-5 M incubated for 48 hrs by sulforhodamine B assay relative to control; format: functional; conditions: read-out: Activity
DU-145 = test: Growth inhibition of human DU145 cells assessed as cell growth at 10^-5 M incubated for 48 hrs by sulforhodamine B assay relative to control; format: functional; conditions: DU-145, 48 h, read-out: Activity
BT-549 [5] = test: Growth inhibition of human BT549 cells assessed as cell growth at 10^-5 M incubated for 48 hrs by sulforhodamine B assay relative to control; format: functional; conditions: BT-549, 48 h, read-out: Activity
MOLT-4 [6] = test: Growth inhibition of human MOLT4 cells assessed as cell growth at 10^-4 M incubated for 48 hrs by sulforhodamine B assay relative to control; format: functional; conditions: MOLT-4, 48 h, read-out: Activity
SF-539 = test: Growth inhibition of human SF539 cells assessed as cell growth at 10^-4 M incubated for 48 hrs by sulforhodamine B assay relative to control; format: functional; conditions: SF-539, 48 h, read-out: Activity
OVCAR-5 = test: Growth inhibition of human OVCAR5 cells assessed as cell growth at 10^-4 M incubated for 48 hrs by sulforhodamine B assay relative to control; format: functional; conditions: OVCAR-5, 48 h, read-out: Activity
NCI/ADR-RES = test: Growth inhibition of human NCI/ADR-RES cells assessed as cell growth at 10^-4 M incubated for 48 hrs by sulforhodamine B assay relative to control; format: functional; conditions: read-out: Activity
786-0 = test: Growth inhibition of human 786-0 cells assessed as cell growth at 10^-4 M incubated for 48 hrs by sulforhodamine B assay relative to control; format: functional; conditions: 786-0, 48 h, read-out: Activity
MDA-MB-231 = test: Growth inhibition of human MDA-MB-231 cells assessed as cell growth at 10^-4 M incubated for 48 hrs by sulforhodamine B assay relative to control; format: functional; conditions: MDA-MB-231, 48 h, read-out: Activity
MOLT-4 [7] = test: Growth inhibition of human MOLT4 cells incubated for 48 hrs by sulforhodamine B assay; format: functional; conditions: MOLT-4, 48 h
HL-60 [8] = test: Induction of apoptosis in human HL60 cells assessed as early apoptotic cells by propidium iodide/Annexin V staining based flow cytometry (reference value: 0.37%); format: functional
MDA-MB-435 [9] = test: Cell cycle arrest in human MDA-MB-435 cells assessed as accumulation at G2-phase by propidium iodide staining based flow cytometry (reference value: 3.68%); format: functional
HL-60 [10] = test: Induction of apoptosis in human HL60 cells assessed as increase in caspase-3 expression by qRT-PCR method; format: functional, cell-based
Histone deacetylase 2 = Histone deacetylase 2 (Homo sapiens, UniProt Q92769); test: Inhibition of human HDAC2 by ELISA
[11] = read-out: LC50 (the source's name)
[12] = read-out: pLC50 (the source's name) (converted)

Chain of Histone deacetylase 2 (Q92769 whole entry): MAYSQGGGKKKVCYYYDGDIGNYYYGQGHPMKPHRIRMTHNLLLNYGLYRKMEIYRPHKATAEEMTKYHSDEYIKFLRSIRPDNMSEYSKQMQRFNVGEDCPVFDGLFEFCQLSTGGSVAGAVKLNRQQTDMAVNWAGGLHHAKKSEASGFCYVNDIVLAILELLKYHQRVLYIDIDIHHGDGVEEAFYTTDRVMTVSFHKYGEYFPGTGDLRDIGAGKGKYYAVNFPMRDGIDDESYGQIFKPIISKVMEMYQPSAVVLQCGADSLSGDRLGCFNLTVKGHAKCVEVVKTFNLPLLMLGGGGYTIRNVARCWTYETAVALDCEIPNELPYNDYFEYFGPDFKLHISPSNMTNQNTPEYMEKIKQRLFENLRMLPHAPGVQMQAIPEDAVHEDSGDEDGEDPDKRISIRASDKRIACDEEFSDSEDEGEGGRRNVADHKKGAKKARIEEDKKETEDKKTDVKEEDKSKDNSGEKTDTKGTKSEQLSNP

SMILES	growth at 0.01 µM (HOP-62)	growth at 0.01 µM (NCI-H322M)	growth at 0.01 µM (Malme-3M)	growth at 0.01 µM (MDA-MB-435 [1])	growth at 0.01 µM (UACC-257)	growth at 0.01 µM (OVCAR-4)	growth at 0.01 µM (A498 [2])	growth at 0.01 µM (BT-549 [3])	growth at 0.01 µM (MDA-MB-468)	growth at 0.1 µM (SW-620)	growth at 0.1 µM (M14)	growth at 0.1 µM (SK-MEL-5)	growth at 0.1 µM (TK-10)	growth at 1 µM (SNB-75)	growth at 1 µM (A498 [4])	growth at 10 µM (HCT-15)	growth at 10 µM (HT-29)	growth at 10 µM (SF-268)	growth at 10 µM (SK-MEL-28)	growth at 10 µM (SN12C)	other results
CCS/C(Nc1ccccc1)=C(\C#N)C(=O)Nc1ccc(OC)cc1	92%	95%	98%	100%	101%	104%	91%	98%	105%	94%	93%	90%	95%	81%	78%	16%	8%	42%	53%	37%	growth at 10 µM (DU-145): 13%; growth at 10 µM (BT-549 [5]): 21%; growth at 100 µM (MOLT-4 [6]): 18%; growth at 100 µM (SF-539): -54%; growth at 100 µM (OVCAR-5): 23%; growth at 100 µM (NCI/ADR-RES): 10%; growth at 100 µM (786-0): 6%; growth at 100 µM (MDA-MB-231): -18%; GI50 (MOLT-4 [7]; read-out: GI50): 2.61 µM; CC50 (MOLT-4 [7]; [11]): > 100 µM; TGI (MOLT-4 [7]; read-out: TGI): > 100 µM; GI50 (MOLT-4 [7]; read-out: pGI50 (converted)): 2.63 µM; CC50 (MOLT-4 [7]; [12]): > 100 µM; TGI (MOLT-4 [7]; read-out: pTGI): > 100 µM; Activity (HL-60 [8]): 4.89%; Activity (MDA-MB-435 [9]): 16.44%; Activity (HL-60 [10]): Active; IC50 (Histone deacetylase 2): 0.032 µM
CCS/C(Nc1ccccc1)=C(\C#N)C(=O)N/N=C\c1ccc(Cl)cc1Cl	93%	94%	103%	95%	94%	98%	91%	98%	108%	92%	93%	90%	91%	76%	68%	19%	11%	42%	53%	41%	growth at 10 µM (DU-145): 12%; growth at 10 µM (BT-549 [5]): 18%; growth at 100 µM (MOLT-4 [6]): 19%; growth at 100 µM (SF-539): -6%; growth at 100 µM (OVCAR-5): 38%; growth at 100 µM (NCI/ADR-RES): 11%; growth at 100 µM (786-0): 7%; growth at 100 µM (MDA-MB-231): 9%; GI50 (MOLT-4 [7]; read-out: GI50): 3.48 µM; CC50 (MOLT-4 [7]; [11]): > 100 µM; TGI (MOLT-4 [7]; read-out: TGI): > 100 µM; GI50 (MOLT-4 [7]; read-out: pGI50 (converted)): 3.47 µM; CC50 (MOLT-4 [7]; [12]): > 100 µM; TGI (MOLT-4 [7]; read-out: pTGI): > 100 µM; Activity (HL-60 [8]): 7.69%; Activity (MDA-MB-435 [9]): 12.4%; Activity (HL-60 [10]): Active; IC50 (Histone deacetylase 2): 0.02 µM
